Results published in patent US10842793B2, “Inhibitors of the unconventional secretion of fibroblast growth factor 2 (FGF2) by tumor cells and uses thereof” (Universität Heidelberg, priority 2016, dated 2020).

Tests used:
[1] = target: T1, GST-NΔ173 Tec (auto-phosphorylation) (Homo sapiens, UniProt P42680); experiment: In vitro Tec kinase auto-phosphorylation; format: biochemical; details: 50 μM compound; for effect on NΔ173 Tec auto-phosphorylation in the presence of STAP1: STAP1 present; for inhibition of Tec auto-phosphorylation in the absence of a substrate: no FGF2, FIGS. 7B and 7E
T1 construct: made in house; host or cells: SF9 insect cells (baculovirus)
T1 sequence (P42680 174-631, stated change not applied): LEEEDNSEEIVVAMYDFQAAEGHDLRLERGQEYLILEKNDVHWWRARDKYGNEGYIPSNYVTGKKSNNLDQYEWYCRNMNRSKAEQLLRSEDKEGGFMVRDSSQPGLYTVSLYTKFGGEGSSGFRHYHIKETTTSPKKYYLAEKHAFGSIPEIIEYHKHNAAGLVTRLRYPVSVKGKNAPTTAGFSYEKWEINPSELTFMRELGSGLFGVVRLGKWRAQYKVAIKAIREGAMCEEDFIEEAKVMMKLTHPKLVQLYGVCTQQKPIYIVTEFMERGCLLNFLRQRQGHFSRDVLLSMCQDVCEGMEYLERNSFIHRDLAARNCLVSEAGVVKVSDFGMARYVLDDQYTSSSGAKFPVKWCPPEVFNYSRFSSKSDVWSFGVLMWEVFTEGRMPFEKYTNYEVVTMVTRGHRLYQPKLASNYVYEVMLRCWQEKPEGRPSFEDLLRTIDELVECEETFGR
Procedure: FGF2 tyrosine phosphorylation and Tec kinase auto-phosphorylation were reconstituted with purified components based on a Western analysis using anti-phosphotyrosine antibodies directed against an FGF2-derived phosphopeptide. In vitro phosphorylation experiments were conducted in the absence (1% DMSO mock control) and presence of the small molecule inhibitors (#6, #14, #21; 50 μM in 1% DMSO) and control compounds (#18, #19; 50 μM in 1% DMSO) introduced in FIGS. 4 and 5. Fluorescent secondary antibodies were used to detect antigens employing the LI-COR Odyssey imaging platform. M=PageRuler Prestained Protein Ladder. For details, see Experimental Procedures.
(§1) FGF2 and STAP1 tyrosine phosphorylation as well as Tec kinase auto-phosphorylation were analyzed as described in the legend to FIG. 6 and in Experimental Procedures. In vitro phosphorylation experiments were conducted in the absence (1% DMSO mock control) and presence of the small molecule inhibitors (#6, #14, #21; 50 μM in 1% DMSO) and control compounds (#18, #19; 50 μM in 1% DMSO) introduced in FIGS. 4 and 5. A Western analysis was conducted using anti-phosphotyrosine antibodies (anti-pY-FGF2 for FGF2 and Tec as well as anti-pY-4G10 for STAP1). M=PageRuler Prestained Protein Ladder: 140, 115, 80, 65, 50, 40, 30, 25, 15, 10 kDa. Fluorescent secondary antibodies were used to detect and quantify antigens using the LI-COR Odyssey imaging platform. In panels D, E and F, following normalization based upon background signals detected in the absence of Tec kinase or ATP, the average of the signals detected under mock conditions was defined as 100% activity. Standard deviations are shown. A one-tailed and unpaired T-test was conducted to assess statistical significance (* p<0.05, ** p<0.01, *** p<0.001, **** p<0.0001). “NS” indicates absence of significant differences.
A Tec kinase in vitro phosphorylation assay was established to test the inhibitory potential and selectivity of the small molecule inhibitors reported in this study (FIGS. 6 and 7). Tyrosine phosphorylation of FGF2 and STAP1, another established substrate of Tec kinase, was tested in a final volume of 100 μl (60 mM Hepes pH 7.5, 3 mM MgCl2, 20 μM ATP, 3 μM Sodium orthovanadate, 1.2 mM DTT, 50 ng/μl PEG 20000, 0.05% w/v Tween 20, 0.001% BSA). GST-NΔ173Tec (60 nM) was incubated in the absence (1% DMSO mock control) or presence of each compound (50 μM in 1% DMSO). Where indicated, reactions contained 250 nM of either FGF2 or 250 nM STAP1 (Hölzel Diagnostika, # GWB-P0486E-100). Following incubation at 30° C. for 45 minutes (corresponding to the midpoint of linear product formation), the reaction was terminated using SDS sample buffer and boiling for 4 minutes at 95° C. […] Phosphorylation levels of GST-NΔ173 Tec (auto-phosphorylation), FGF2 and STAP1 were quantified by a Western analysis using polyclonal anti-phosphotyrosine antibodies raised against a FGF2-derived synthetic peptide containing a phosphorylated tyrosine residue (ANRpYLAMKED; SEQ ID NO: 1). […] Phosphorylation levels of STAP1 were monitored using a monoclonal anti-phosphotyrosine antibody (clone 4G10®, #05-321, Merck Millipore). Appropriate fluorescent secondary antibodies (goat anti-rabbit IgG conjugated with Alexa Fluor® 680, # A-21076, Life Technologies; goat anti-mouse IgG conjugated with Alexa Fluor® 680, # A-21057, Life Technologies) were used to quantify all antigens employing the LI-COR Odyssey infrared imaging platform. […]

[2] = target: T2, Tec kinase mediated tyrosine phosphorylation of STAP1 (Homo sapiens, UniProt P42680); experiment: In vitro Tec kinase mediated tyrosine phosphorylation of STAP1; format: biochemical; details: 50 μM compound; FIGS. 7C and F
T2 construct: made in house; host or cells: Tec: SF9 insect cells (baculovirus); STAP1 purchased (Hölzel Diagnostika, Cat. # GWB-P0486E-100)
T2 sequence (P42680 174-631): as the sequence (P42680 174-631, stated change not applied) above
Procedure: as §1
A Tec kinase in vitro phosphorylation assay was established to test the inhibitory potential and selectivity of the small molecule inhibitors reported in this study (FIGS. 6 and 7). […] Phosphorylation levels of GST-NΔ173 Tec (auto-phosphorylation), FGF2 and STAP1 were quantified by a Western analysis using polyclonal anti-phosphotyrosine antibodies raised against a FGF2-derived synthetic peptide containing a phosphorylated tyrosine residue (ANRpYLAMKED; SEQ ID NO: 1). […] Phosphorylation levels of STAP1 were monitored using a monoclonal anti-phosphotyrosine antibody (clone 4G10®, #05-321, Merck Millipore). Appropriate fluorescent secondary antibodies (goat anti-rabbit IgG conjugated with Alexa Fluor® 680, # A-21076, Life Technologies; goat anti-mouse IgG conjugated with Alexa Fluor® 680, # A-21057, Life Technologies) were used to quantify all antigens employing the LI-COR Odyssey infrared imaging platform. […]

Row | SMILES | effect on NΔ173 Tec auto-phosphorylation in the presence of STAP1 [1] | inhibition of Tec auto-phosphorylation in the absence of a substrate [1] | effect on tyrosine phosphorylation of STAP1 [2]
1 | COC(=O)c1c(C)[nH]c(C(=O)OCc2cc(=O)n3c(C)cccc3n2)c1C [compound #6] | neither auto-phosphorylation of NΔ173 Tec nor tyrosine phosphorylation of STAP1 is affected | particularly evident | neither auto-phosphorylation of NΔ173 Tec nor tyrosine phosphorylation of STAP1 is affected
2 | CC(=O)c1c(C)[nH]c(C(=O)OCc2cc(=O)n3cc(Br)ccc3n2)c1C [compound #14] | neither auto-phosphorylation of NΔ173 Tec nor tyrosine phosphorylation of STAP1 is affected |  | neither auto-phosphorylation of NΔ173 Tec nor tyrosine phosphorylation of STAP1 is affected
3 | CC(=O)c1c(C)[nH]c(C(=O)CSc2nc3cc(Cl)cnc3[nH]2)c1C [compound #21] | neither auto-phosphorylation of NΔ173 Tec nor tyrosine phosphorylation of STAP1 is affected | particularly evident | neither auto-phosphorylation of NΔ173 Tec nor tyrosine phosphorylation of STAP1 is affected
